Assay results published in paper PMC11908892 (ACS infectious diseases, 2025).
Values after ≈ are worked out from the molar mass of the structure shown. “Also recorded” adds a separate entry of the source. Like-named read-outs stand apart in the source and are kept apart here.

Experiments:
[1] = test system: M. tuberculosis H37Rv; assay: Microplate alamar blue assay; format: cell-based; conditions: Mycobacterium tuberculosis
[2] = test system: E. coli W3310ΔmscL::Kan, E. coli K12 W3310ΔmscS, E. coli W3310; format: cell-based; conditions: comparison between knock-out and WT strains
[3] = molecular target: SaDHFR (Staphylococcus aureus, UniProt P0A017); format: biochemical; conditions: apparent IC50; purified S. aureus DHFR
Chain of SaDHFR (P0A017 whole entry): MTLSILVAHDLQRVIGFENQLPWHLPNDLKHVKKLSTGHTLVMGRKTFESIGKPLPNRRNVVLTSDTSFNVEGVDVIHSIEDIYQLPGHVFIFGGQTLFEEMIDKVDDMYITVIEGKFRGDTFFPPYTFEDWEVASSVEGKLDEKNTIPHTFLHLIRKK

[4] = test system: E. coli ATCC 25922; assay: SYTOX Green uptake assay; format: cell-based; conditions: any of the concentrations tested; melittin as positive control
[5] = test system: P. aeruginosa PAO1; assay: Broth microdilution susceptibility testing; format: cell-based; conditions: Pseudomonas aeruginosa, PAO1, read-out: Minimum Inhibitory Concentration (MIC90) P. aeruginosa PAO1 − Thy
[6] = test system: S. aureus ATCC 11632; assay: Broth microdilution susceptibility testing; format: cell-based; conditions: Staphylococcus aureus, ATCC11632, read-out: Minimum Inhibitory Concentration (MIC90) S. aureus ATCC 11632 − Thy
[7] = test system: E. coli ATCC 25922; assay: Broth microdilution susceptibility testing; format: cell-based; conditions: Escherichia coli, ATCC25922, read-out: Minimum Inhibitory Concentration (MIC90) E. coli ATCC 25922 − Thy
[8] = test system: human erythrocytes
[9] = test system: M. abscessus L948; assay: MABA assay in M. abscessus; format: cell-based; conditions: for IC50: Mycobacteroides abscessus, L948, read-out: Half-Maximal Inhibitory Concentration (IC50, μM) M. abscessus L948 MABA
[10] = test system: Bacillus subtilis; assay: Kirby-Bauer agar diffusion assay; format: cell-based
[11] = test system: Micrococcus luteus; assay: Kirby-Bauer agar diffusion assay; format: cell-based
[12] = test system: S. aureus; assay: Kirby-Bauer agar diffusion assay; format: cell-based; conditions: both tested strains of S. aureus
[13] = read-out: Minimum Inhibitory Concentration (MIC90, μM) M. tuberculosis H37Rv MABA: 7H12 Media
[14] = read-out: Minimum Inhibitory Concentration (MIC90, μM) M. tuberculosis H37Rv MABA: GAST Media

For `COc1c(N2C[C@@H]3CCCN[C@@H]3C2)c(F)cc2c(=O)c(C(=O)O)cn(C3CC3)c12` [Moxifloxacin], the MIC90 [1, 13] was 0.43 µM (≈ 0.173 µg/mL) and the MIC90 [1, 14] was 0.042 µM (≈ 0.0169 µg/mL).
`[H]/N=C(/N)N[C@H]1[C@H](O)[C@@H](O)[C@H](O[C@@H]2O[C@@H](C)[C@](O)(C=O)[C@H]2O[C@@H]2O[C@@H](CO)[C@H](O)[C@@H](O)[C@@H]2NC)[C@@H](N/C(N)=N\[H])[C@@H]1O` [Streptomycin] was tested, and the MIC90 [1, 13] was 0.21 µM (≈ 0.122 µg/mL) and the MIC90 [1, 14] was 0.27 µM (≈ 0.157 µg/mL).
Work on `NNC(=O)c1ccncc1` [Isoniazid] yielded an MIC90 [1, 13] of 0.24 µM (≈ 0.0329 µg/mL) and an MIC90 [1, 14] of 0.12 µM (≈ 0.0165 µg/mL).
For `CC1(C)N=C(N)N=C(N)N1c1ccc(Cl)cc1` [CYC, cycloguanil], the “MIC values against E. coli ΔmscL, ΔmscS and WT parent strain set” value [2] was “no significant differences”, the “SaDHFR IC50 (μM ± SD)” value [3] was “did not inhibit and nf^a” and the “SYTOX Green uptake” value [4] was “no uptake”. The MIC90 [1, 13] was 74.8 µM (≈ 18.8 µg/mL), the MIC90 [1, 14] was > 100 µM and the MIC90 [5] was > 128 µM. The MIC90 [6] was > 128 µM, the MIC90 [7] was > 128 µM and the hemolysis [8] was “no detectable hemolysis”. For the same compound, the “Half-Maximal Inhibitory Concentration (IC50, μM) M. abscessus L948 MABA” value ([9]; MABA) was “no inhibition”, the IC50 [9] was > 200 µM and the “susceptibility / activity in agar diffusion, B. subtilis” value [10] was “susceptible; also recorded: low activity”. For the same compound, the “susceptibility / activity in agar diffusion, M. luteus” value [11] was “no activity” and the “activity in agar diffusion, S. aureus” value [12] was “no activity”.
For `CC[C@H]1OC(=O)[C@H](C)[C@@H](O[C@H]2C[C@@](C)(OC)[C@@H](O)[C@H](C)O2)[C@H](C)[C@@H](O[C@@H]2O[C@H](C)C[C@H](N(C)C)[C@H]2O)[C@](C)(OC)C[C@@H](C)C(=O)[C@H](C)[C@@H](O)[C@]1(C)O` [Clarithromycin], the IC50 [9] was 15.4 µM and the “inhibition plateau in M. abscessus MABA” value ([9]; plateau from 12.5–200 μM) was ~ 70%.
In the case of `O=[N+]([O-])c1cn2c(n1)OC[C@@H](OCc1ccc(OC(F)(F)F)cc1)C2` [Pretomanid], the MIC90 [1, 13] is reported as 0.38 µM (≈ 0.137 µg/mL) and the MIC90 [1, 14] is reported as 0.51 µM (≈ 0.183 µg/mL).
For `COc1cc(Cc2cnc(N)nc2N)cc(OC)c1OC` [TMP, trimethoprim], the “MIC values against E. coli ΔmscL, ΔmscS and WT parent strain set” value [2] was “no significant differences” and the “SYTOX Green uptake” value [4] was “no uptake”.
With `CO[C@H]1/C=C/O[C@@]2(C)Oc3c(C)c(O)c4c(O)c(c(/C=N/N5CCN(C)CC5)c(O)c4c3C2=O)NC(=O)/C(C)=C\C=C\[C@H](C)[C@H](O)[C@@H](C)[C@@H](O)[C@@H](C)[C@H](OC(C)=O)[C@@H]1C` [Rifampicin] the MIC90 [1, 13] was 0.05 µM (≈ 0.0411 µg/mL) and the MIC90 [1, 14] was < 0.016 µM.
